Viability data for 37 compounds are collected here from article PMC11995724, “Antibiotic target discovery by integrated phenotypic and activity-based profiling of electrophilic fragments” (Cell chemical biology, 2025).

Structures are written as SMILES. Structures can show the parent of a compound that is named as a salt.

This data set in a line: in vitro. The following applies: human, hek293t cells.
Take `CC(Cl)C(=O)NCC1(n2ccnn2)CC1` (stereo not shown) [6-B20, 2-chloro-N-{[1-(1H-1,2,3-triazol-1-yl)cyclopropyl]methyl}propanamide]: the viability at 48 h, 25 µM worked out at 104%.
Next, `CC(Cl)C(=O)N1CCc2oc(-c3ccccc3)cc2C1` (stereo not shown) [6-B21, 2-chloro-1-{2-phenyl-4H,5H,6H,7H-furo[3,2-c]pyridin-5-yl}propan-1-one]: 67.2%; `CC(Cl)C(=O)N[C@H]1C[C@H](C)S(=O)(=O)c2sccc21` (stereo partly drawn) [6-B22, 2-chloro-N-[(2S,4S)-2-methyl-1,1-dioxo-2H,3H,4H-1lambda6-thieno[2,3-b]thiopyran-4-yl]propanamide]: 92.4%; `CN(CCOc1ccccc1F)C(=O)CCl` [6-C03, 2-chloro-N-[2-(2-fluorophenoxy)ethyl]-N-methylacetamide]: 1.83%.
Next, `CC(C)(CNC(=O)CCl)CC1CCOCC1` [6-C04, 2-chloro-N-[2,2-dimethyl-3-(oxan-4-yl)propyl]acetamide]: 130%; `CC1(C)CN(C(=O)CCl)CCO1` [6-C05, 2-chloro-1-(2,2-dimethylmorpholin-4-yl)ethan-1-one]: 2.63%; `Cc1ccccc1CC(C)NC(=O)CCl` (stereo not shown) [6-C06, 2-chloro-N-[1-(2-methylphenyl)propan-2-yl]acetamide]: 75.4%.
As to `Cc1nn(C)c(C)c1NC(=O)C(C)Cl` (stereo not shown) [6-C07, 2-chloro-N-(1,3,5-trimethyl-1H-pyrazol-4-yl)propanamide], the viability at 48 h, 25 µM was 116%.
Next, `O=C(CCl)NCC(c1ccccc1)c1c[nH]c2ccccc12` (stereo not shown) [6-C08, 2-chloro-N-[2-(1H-indol-3-yl)-2-phenylethyl]acetamide]: 0.717%; `COc1ccccc1CN(C)C(=O)CCl` [6-C09, 2-chloro-N-[(2-methoxyphenyl)methyl]-N-methylacetamide]: 1.06%.
As for `CC1CCCCC1NC(=O)CCl` (stereo not shown) [6-C10, 2-chloro-N-(2-methylcyclohexyl)acetamide], the viability at 48 h, 25 µM was 93.3%.
As for `N#CCSc1ccccc1NC(=O)CCl` [6-C11, 2-chloro-N-{2-[(cyanomethyl)sulfanyl]phenyl}acetamide], the viability at 48 h, 25 µM worked out at 2.08%.
In the case of `CC(Cl)C(=O)N(C)CCOc1ccc(Cl)cc1` (stereo not shown) [6-C12, 2-chloro-N-[2-(4-chlorophenoxy)ethyl]-N-methylpropanamide], the viability at 48 h, 25 µM came out at 81.3%.
The value for `O=C(CCl)NC(Cc1ccccc1)C(=O)O` (stereo not shown) [6-C13, 2-(2-chloroacetamido)-3-phenylpropanoic acid] was 97.4%; that for `O=C(CCl)NCc1ccccc1OC1CCCC1` [6-C14, 2-chloro-N-{[2-(cyclopentyloxy)phenyl]methyl}acetamide] was 2.1%.
For `COc1cc(Cl)c(C)cc1NC(=O)C(C)Cl` (stereo not shown) [6-C15, 2-chloro-N-(4-chloro-2-methoxy-5-methylphenyl)propanamide], the viability at 48 h, 25 µM was determined as 102%.
The value for `CN(C)C(=O)c1ccc(CNC(=O)CCl)cc1` [6-C16, 4-[(2-chloroacetamido)methyl]-N,N-dimethylbenzamide] was 67.8%.
Next, `CC(Cl)C(=O)Nc1cccnc1Cl` (stereo not shown) [6-C17, 2-chloro-N-(2-chloropyridin-3-yl)propanamide]: 106%; `O=C(CCl)Nc1ccc(Oc2cccc(Cl)c2)cc1` [6-C18, 2-chloro-N-[4-(3-chlorophenoxy)phenyl]acetamide]: 0.765%; `O=C(CCl)Nc1nccc(Cl)n1` [6-C19, 2-chloro-N-(4-chloropyrimidin-2-yl)acetamide]: 100%.
The value for `CCN(CC)S(=O)(=O)c1ccc(Cl)c(NC(=O)C(C)Cl)c1` (stereo not shown) [6-C20, 2-chloro-N-[2-chloro-5-(diethylsulfamoyl)phenyl]propanamide] was 79.6%; that for `O=C(CCl)NCC(F)(F)c1cccnc1` [6-C21, 2-chloro-N-[2,2-difluoro-2-(pyridin-3-yl)ethyl]acetamide] was 104%.
Consider `O=C(CCl)NC(C1CC1)C1CC1` [6-C22, 2-chloro-N-(dicyclopropylmethyl)acetamide], for which the viability at 48 h, 25 µM came to 66.4%.
Next, `O=C(CCl)Nc1nc2c(s1)CCc1ccccc1-2` [6-D03, 2-chloro-N-{4H,5H-naphtho[1,2-d][1,3]thiazol-2-yl}acetamide]: 0.611%.
Take `Cc1nc2ccccc2n(CCCN(C)C(=O)CCl)c1=O` [6-D04, 2-chloro-N-methyl-N-[3-(3-methyl-2-oxo-1,2-dihydroquinoxalin-1-yl)propyl]acetamide]: the viability at 48 h, 25 µM was found to be 1.73%.
The value for `CC(Cl)C(=O)N(C)C(C)c1ccccc1N1CCCS1(=O)=O` (stereo not shown) [6-D05, 2-chloro-N-{1-[2-(1,1-dioxo-1lambda6,2-thiazolidin-2-yl)phenyl]ethyl}-N-methylpropanamide] was 104%; that for `CC(Cl)C(=O)Nc1ccc([N+](=O)[O-])cc1C(F)(F)F` (stereo not shown) [6-D06, 2-chloro-N-[4-nitro-2-(trifluoromethyl)phenyl]propanamide] was 98.9%; that for `CC(Cl)C(=O)N1CCNC(=O)C1c1c(F)cccc1Cl` (stereo not shown) [6-D07, 3-(2-chloro-6-fluorophenyl)-4-(2-chloropropanoyl)piperazin-2-one] was 107%.
Next, `Cn1cc(CN(C(=O)CCl)c2ccc(F)cc2)cn1` [6-D08, 2-chloro-N-(4-fluorophenyl)-N-[(1-methyl-1H-pyrazol-4-yl)methyl]acetamide]: 2.1%.
Turning to `Cc1ncccc1NC(=O)[C@H](C)NC(=O)C(C)Cl` (stereo partly drawn) [6-D09, 2-chloro-N-[(1S)-1-[(2-methylpyridin-3-yl)carbamoyl]ethyl]propanamide], the viability at 48 h, 25 µM amounted to 99.8%.
For `CC(Cl)C(=O)NC(=O)NC12CC3CC(CC(C3)C1)C2` (stereo not shown) [6-D10, 1-(adamantan-1-yl)-3-(2-chloropropanoyl)urea], the viability at 48 h, 25 µM is 101%.
`O=C(CCl)NCC(c1nccs1)N1CCCC1` (stereo not shown) [6-D11, 2-chloro-N-[2-(pyrrolidin-1-yl)-2-(1,3-thiazol-2-yl)ethyl]acetamide hydrochloride]: the viability at 48 h, 25 µM was determined as 92.9%.
As to `O=C(CCl)Nc1ccccc1C(=O)Nc1ccc(F)cc1` [6-D12, 2-(2-chloroacetamido)-N-(4-fluorophenyl)benzamide], the viability at 48 h, 25 µM amounted to 0.805%.
Take `CC(Cl)C(=O)N[C@H](C)c1cnnn1C` (stereo partly drawn) [6-D13, 2-chloro-N-[(1R)-1-(1-methyl-1H-1,2,3-triazol-5-yl)ethyl]propanamide]: the viability at 48 h, 25 µM was 103%.
Next, `CC(Cl)C(=O)N1CCCc2c1ccnc2N(C)C` (stereo not shown) [6-D14, 2-chloro-1-[5-(dimethylamino)-1,2,3,4-tetrahydro-1,6-naphthyridin-1-yl]propan-1-one]: 109%.
As to `CC1=C(c2ccco2)CN(C(=O)C(C)Cl)CC1` (stereo not shown) [6-D15, 2-chloro-1-[5-(furan-2-yl)-4-methyl-1,2,3,6-tetrahydropyridin-1-yl]propan-1-one], the viability at 48 h, 25 µM is 103%.
On to `CC(Cl)C(=O)N1CCCC1CC(=O)c1cnn(C)c1` (stereo not shown) [6-D16, 2-chloro-1-{2-[2-(1-methyl-1H-pyrazol-4-yl)-2-oxoethyl]pyrrolidin-1-yl}propan-1-one], for which the viability at 48 h, 25 µM was found to be 116%.
